Reference: US10882852B1, “3-vinylquinolines as cancer cells inhibitors” (King Abdulaziz University, priority 2020, dated 2021)
Where “and” joins values, the source holds several entries; their conditions need not be identical. Equal entries are not always repeated. Where two headings read alike, the source gives them in different places.

Legend:
HL-60 leukemia cells = assay: MTT cell viability assay, HL-60; type: cell-based, human
Procedure: (§1) All the human tumour cell lines MCF-7, HCT-116, HL-60 and HeLa were cultured in Dulbecco's Modified Eagle's Medium (DMEM) with 10% fetal bovine serum, 2 mM L-glutamine and 100 µg/mL penicillin/streptomycin. Cells were maintained at 37° C. in 5% CO2 in a humidified incubator. All cells were sub-cultured 3 times/week by trypsinization using TrypLE Express (1×).
(§2) The quinoline compounds were evaluated for antiproliferative effect using the MTT viability assay of four cancer cell lines (MCF-7, HCT-116, HL-60 and HeLa) and normal breast cells MCF-10A to calculate the relative IC50 values for each compound. Cells were seeded in triplicate in 96-well plates at a density of 10×10^3 cells/ml in a total volume of 200 μl per well. 0.1% of DMSO was used as a vehicle control. After this time, they were treated with 2 μl test compound which had been pre-prepared as stock solutions in ethanol to furnish the concentration range of study, 1 nM to 50 μM, and re-incubated for a further 72 h. The culture medium was then removed, and the cells washed with 100 μL phosphate buffered saline (PBS) and 50 μL MTT added, to reach a final concentration of 1 mg/mL MTT added. Cells were incubated for 2 h in darkness at 37° C. At this point solubilisation was begun through the addition of […] DMSO and the cells maintained at room temperature in darkness for 20 min to ensure thorough colour diffusion before reading the absorbance. Plates were incubated for 72 hours at 37° C.+5% CO2, The MTT (5 mg/mL in PBS) was added and incubated for another 4 h, the optical density was detected with a microplate reader at 570 nm. Results were expressed as percentage viability relative to vehicle control (100%). Dose response curves were plotted and IC50 values (concentration of drug resulting in 50% reduction in cell survival) were obtained using the commercial software package Prism (GraphPad Software, Inc., La Jolla, Calif., USA). All the experiments were repeated in at least three independent experiments.

MCF-7 cells [1] = assay: Annexin V/PI apoptotic assay; type: cell-based, human; details: MCF-7, 50 nM, 48 h; control 1%
Procedure: Apoptotic cell death was detected by flow cytometry using Annexin V and propidium iodide (PI). […] Cells were then harvested and prepared for flow cytometric analysis. Cells were washed in 1× binding buffer (20× binding buffer: 0.1M HEPES, pH 7.4; 1.4 M NaCl; 25 mM CaCl2) diluted in dH2O) and incubated in the dark for 30 minutes on ice in Annexin V-containing binding buffer [1:100]. Cells were then washed once in binding buffer and then re-suspended in […] binding buffer [1:1000]. Samples were analysed immediately using the BD accuri flow cytometer and prism software for analysis the data. Four populations are produced during the assay Annexin V and PI negative (Q4, healthy cells), Annexin V positive and PI negative (Q3, early apoptosis), Annexin V and PI positive (Q2, late apoptosis) and Annexin V negative and PI positive (Q1, necrosis).

[2] = tested on: MCF-7 breast cancer cells; assay: MTT cell viability assay, MCF-7; type: cell-based, human
Procedure: as §1, §2

MCF-7 cells [3] = assay: Cell cycle analysis by PI flow cytometry; type: cell-based, human; details: MCF-7, 50 nM
Procedure: MCF-7 cells were seeded at a density of 1×10^5 cells/well in 6-well plates and treated with CA-4 (50 nM) and compound 8c (50 and 250 nM) for 24, 48 and 72 hr. The cells were collected by trypsinization and centrifuged at 800×g for 15 min. Cells were washed twice with ice-cold PBS and fixed in ice-cold 70% ethanol overnight at −20° C. Fixed cells were centrifuged at 800×g for 15 min and stained with 50 μg/mL of PI, containing 50 μg/mL of DNase-free RNase A, at 37° C. for 30 min. The DNA content of cells (10,000 cells/experimental group) was analysed by flow cytometer at 488 nm using a FACSCalibur flow cytometer (BD Biosciences, San Jose, Calif.) and all data were recorded and analyzed using the CellQuest Software (Becton-Dickinson).

bovine brain tubulin = assay: Tubulin polymerization assay; type: biochemical; details: inhibition of tubulin polymerization; tubulin at 10 μM; read-out: Tubulin assembly IC50 ± SD
Procedure: The assembly of purified bovine tubulin was monitored using a kit, BK006, purchased from Cytoskeleton Inc., (Denver, Colo., USA). The assay was carried out in accordance with the manufacturer's instructions using the standard assay conditions. […] Light is scattered proportionally to the concentration of polymerized microtubules in the assay. Therefore, tubulin assembly was monitored turbidimetrically at 340 nm in a Spectramax 340 PC spectrophotometer (Molecular Devices, Sunnyvale, Calif., USA). The concentration that inhibits tubulin polymerization by 50% (IC50) was determined using area under the curve (AUC). The AUC of the untreated controls were considered as 100% polymerization. The IC50 value for each compound was computed using GraphPad Prism Software.

[4] = tested on: MCF-10A normal epithelial breast cells; assay: MTT cell viability assay, normal breast cells; type: cell-based, human; details: 72 h
Procedure: as §2, with “Dose response curves were plotted and IC50 values (concentration of drug resulting in 50% reduction in cell survival) were obtained using the commercial software package Prism (GraphPad Software, Inc., La Jolla, Calif., USA). All the experiments were repeated in at least three independent experiments.” left out

[5] = tested on: HCT-116 colon cancer cells; assay: MTT cell viability assay, HCT-116; type: cell-based, human; details: HCT-116, MTT
Procedure: as §1, §2

MCF-7 cells [6] = assay: ROS production by H2-DCFDA; type: cell-based, human; details: MCF-7, 50 nM, 24 h; untreated 1.0%
Procedure: Mitochondrial membrane potential (Δψmt) was measured by flow cytometry with DiOC2(3) staining and additional labelling with an annexin V conjugate. After treatment with compound 8c (50 and 250 nM) and CA-4 (50 nM), cells were stained with DiOC2(3) dye for 30 min in the incubator then harvested and washed with PBS. DiOC2(3)-stained cells were resuspended with 1× annexin binding buffer then added annexin V conjugate and incubated at 37° C. for 15 min. Then the data obtained from flow cytometry were analyzed by Cell Quest software. Production of intracellular Reactive oxygen species (ROS) was measured using 2,7-dichlorofluorescin diacetate (H2-DCFDA) dye. MCF-7 cells were seeded and treated either with vehicle (0.1% DMSO) or with compound 8c (50 and 250 nM) and CA-4 (50 nM) for different time 6, 12 and 24 h. H2O2 was used as a positive control. The amount of ROS generated was estimated after 2 h of selected compound treatment. The cells were collected by centrifugation and washed twice with PBS. Cells were then incubated with DCFDA dye (25 μM) in dark at 37° C. for 1 h. Fluorescence spectra (510-600 nm) were monitored using an excitation wavelength of 488 nm

[7] = tested on: HeLa cervical cancer cells; assay: MTT cell viability assay, HeLa; type: cell-based, human
Procedure: as §1, §2

[8] = tested on: tubulin (colchicine binding site); assay: [3H]colchicine site competitive binding assay; details: inhibition of [3H]colchicine binding
Procedure: The affinity of compounds 8c to colchicine binding site was determined using Colchicine Site Competitive Assay kit CytoDYNAMIX Screen15 (Cytoskeleton, Inc., CO, USA) using the standard protocol of the manufacturer to determine Ki values (μM). Biotin-labelled tubulin ([…]) in 10 μL of reaction buffer was mixed with [3H]colchicine (0.08 μM, PerkinElmer, Waltham, Mass.) and the test compounds (positive control colchicine, negative control vinblastine, G-1, fluorescent G-1, or 2-ME) in a 96-well plate (final volume: 100 μL). After incubating for 2 h at 37° C. with gentle shaking, streptavidin-labelled yttrium SPA beads ([…] in 20 μL reaction buffer, PerkinElmer, Waltham, Mass.) were added to each well and incubated for 30 min at 4° C. The plates were then read on a scintillation counter (Packard Instrument, Topcount Microplate Reader) and the percentage of inhibition was calculated

[9] = tested on: pro-apoptotic protein Bax; assay: BAX ELISA in MCF-7 cells; type: cell-based, human; details: MCF-7, 250 nM, 48 h
Procedure: (§3) Bcl-2 content of MCF-7 cells was assessed by ELISA Kit purchased Zymed laboratories, invitrogen immunodetection according to the manufacturer's protocol, and the enzyme concentration was expressed as ng/mL [55]. ELISA Assay for BAX content of MCF-7 cells was assessed by ELISA kit purchased from Cloud-Clone Crop. (USA) according to the manufacturer's protocol, and the enzyme concentration was expressed as ng/mL [56]. In Vitro Caspase-9 Activation Assay was performed using human active caspase-9 Invitrogen EIA kit and the procedure of the used kit was done according to the manufacturer's instructions.

MCF-7 cells [10] = assay: Wound healing (cell migration) assay; type: cell-based, human; details: MCF-7, 24 h
Procedure: MCF-7 were grown in 6-well plates for 24 h, then the scratches were made using pipette tip and washed with PBS to remove non-adherent cell debris. Subsequently, the cells were treated with different concentrations of 8c for 24 h. The migrations across the wound area were photographed under a phase contrast microscopy.

MCF-7 cells [11] = assay: Colony formation assay; type: cell-based, human; details: MCF-7, 50 and 250 nM
Procedure: MCF-7 cells (600 cells per well) were seeded in 6-well plates and incubated for 24 h before being then treated with different doses of the compound 8c (50 and 250 nM) for 14 days. […]. Then the cells were washed with PBS twice and subsequently fixed with 4% paraformaldehyde and stained with 0.05% crystal violet for 30 min. Finally, cells were visualized using an inverted microscope.

[12] = tested on: anti-apoptotic protein Bcl-2; assay: Bcl-2 ELISA in MCF-7 cells; type: cell-based, human; details: MCF-7, 250 nM, 48 h
Procedure: as §3

caspase-9 = assay: Caspase-9 activation assay in MCF-7 cells; type: cell-based, human; details: MCF-7, 50 nM
Procedure: as §3

For `COc1ccc(/C=C\c2cc(OC)c(OC)c(OC)c2)cc1O` [CA-4, Combretastatin A-4, reference compound], the IC50 (HL-60 leukemia cells; HL-60, MTT, 72 h, mean ± spread of three experiments, read-out: IC50 value (μM) HL-60) was 0.076 ± 0.004 µM, the “Annexin V-staining positive cells (total apoptotic cells)” value (MCF-7 cells [1]) was 29% and the IC50 ([2]; MCF-7, MTT, 72 h, read-out: IC50 value (μM) MCF-7) was 0.019 ± 0.004 µM. For the same compound, the “percentage of cells in G2/M phase” value (MCF-7 cells [3]; 24 h) was 40.3%, the “population in the sub-G1 phase (apoptosis)” value (“population” for short) (MCF-7 cells [3]; 24 h) was 23.5% and the “population” value (MCF-7 cells [3]; 48 h) was 31.1%. The “percentage of cells in G2/M phase” value (MCF-7 cells [3]; 48 h, control 9.2%) was 43.8%, the “percentage of cells in G2/M phase” value (MCF-7 cells [3]; 72 h) was 47.7% and the “population” value (MCF-7 cells [3]; 72 h) was 37.4%. For the same compound, the IC50 (bovine brain tubulin) was […], the IC50 [4] was 6100 nM and the IC50 ([5]; 72 h, read-out: IC50 value (μM) HCT-116) was 0.026 ± 0.001 µM. The ROS generation (MCF-7 cells [6]) was 18.3%, the IC50 ([7]; 72 h, read-out: IC50 value (μM) HeLa) was 0.064 ± 0.004 µM and the “Colchicine binding % ± SD, 1 μM drug” value [8] was 86% and 86 ± 0.9%. The “Colchicine binding % ± SD, 5 μM drug” value [8] was 97% and 97 ± 2%.

For `COc1cc(C2=NC(=Cc3cc4ccc(C)cc4nc3OC)C(=O)O2)cc(OC)c1OC` [Compound 8c, 4-[(2-Methoxy-7-methylquinolin-3-yl)methylene]-2-(3,4,5-trimethoxyphenyl)oxazol-5(4H)-one], the IC50 (HL-60 leukemia cells; HL-60, MTT, read-out: IC50 in HL-60) was 0.0107 µM, the IC50 (HL-60 leukemia cells; Homo sapiens, HL-60, HL-60, MTT, read-out: IC50 in HL-60) was 0.0191 µM and the “expression of pro-apoptotic protein Bax” value [9] was “up-regulation in the expression”. For the same compound, the “Annexin V-staining positive cells (total apoptotic cells)” value (MCF-7 cells [1]) was 15%, the IC50 ([2]; Homo sapiens, MCF7, MCF-7, MTT, read-out: IC50 in MCF-7) was 0.0107 µM and the IC50 ([2]; MCF-7, MTT, read-out: IC50 in MCF-7) was 0.0191 µM. For the same compound, the “inhibition of cell migration (wound healing)” value (MCF-7 cells [10]) was “migration inhibition in a dose dependent manner”, the IC50 (bovine brain tubulin) was 1200 nM and 1210 nM and the IC50 ([5]; Homo sapiens, read-out: IC50 in HCT-116) was 0.0225 µM. The “inhibition of colony formation” value (MCF-7 cells [11]) was “inhibited the colony formation in a dose dependent manner”, the “expression level of anti-apoptotic protein Bcl-2” value [12] was “decrease in the expression level” and the IC50 ([7]; Homo sapiens, read-out: IC50 in HeLa) was 0.0427 µM. For the same compound, the “Colchicine binding % ± SD, 1 μM drug” value [8] was 79% and 79 ± 2%, the “Colchicine binding % ± SD, 5 μM drug” value [8] was 87% and 87 ± 1% and the “fold increase in caspase-9 expression” value (caspase-9) was “about 6 fold”.
